# Experimental data published in paper PMC3920720, “Triterpenes and Steroids from Euphorbia denticulata Lam. With Anti-Herpes Symplex Virus Activity” (Iranian Journal of Pharmaceutical Research : IJPR, 2013).
# Read-outs that look alike come from different tables or passages of the source.
# What was measured:
# [1] = Cytotoxicity assay (MTS) on Vero cells; type: cell-based, African green monkey; settings: African green monkey
# Method: (§1) For cytotoxicity and antiviral assays cells were grown in Dulbeccoʼs Modified Eagleʼs growth Medium ( DMEM; Sigma, USA) supplemented with 2% of fetal bovine serum (FBS; Gibco, Germany), 100 μg/mL of streptomycin, 100 UI/mL of penicillin and 0.25 μg/mL amphotericin B ( Gibco, Germany) and 0.14% (v/v) sodium bicarbonate. All the cells were cultured at 37°C in a humidified atmosphere supplied with 5% CO2.
# (§2) The Vero cells were seeded onto a 96-well plate at a concentration of 3.5×10^5 Vero cells per mL and a volume of 100 μL per well. Following 24 h incubation at 37 °C, a confluent cell monolayer was confirmed and cell media was removed. Test compounds were serially diluted with the culture medium supplemented with 2% serum to reach the different concentrations. Negative control dilution of DMSO at 0.1 % was also included. An aliquot of 100 μL/well of each diluted compound or DMSO was added to the plates in triplicate. After incubation at 37 °C with 5% CO2 for 3 days, MTS (Cell Titer 96; Promega, USA) was added to each well with a volume of 20 μL. The trays were further incubated for 2 h to allow MTS production. The absorbances were determined with an ELISA reader (Stata Fax 2100, USA) at a test wavelength of 490 nm. Data were calculated as the percentage of inhibition using the following formula: inhibition % =[100 – ( At/ As) × 100]%. At and As refer to the absorbances of the test substances and the solvent control, respectively. CC50 values, defined as the concentration of 50% cellular cytotoxicity (CC50) of test compounds ([7], [8]).
# HSV-1 [2] = test: Antiviral assay using MTS method (HSV-1 infected Vero cells); type: cell-based, Herpes simplex virus type 1 (HSV-1, strain KOS); settings: for Selectivity index (SI) = CC50/EC50: HSV-1, CC50 on Vero cells / EC50; for EC50: read-out: EC50 ±SEM (concentration producing 50% inhibition of virus induced cytopathic effects)
# HSV-1 [3] = test: Time-course anti-virus analysis (MTS, addition pre-, co- or post-infection); type: cell-based, Herpes simplex virus type 1 (HSV-1, strain KOS); settings: post-infection; 1, 10, 100 μg/mL; added 1 h before to 24 h after infection; MTS after 3 days
# Method: Different non-cytotoxic concentrations (≤ CC50 values) of test compounds were added to culture cells in triplicate at different times pre-infection or post-infection. HSV-1(10 TCID50 per well) was inoculated onto confluent monolayers of Vero cells for 2 h. After 3 days, MTS test and antiviral activity were carried out as previously described ([3]).
# Inhibition was evaluated by MTS assay after 3 days of infection and expressed as percentage inhibition.
# Figure 3 Inhibitory effect of test compounds at different concentrations (1, 10, 100 μg/mL) at various times pre-infection , co-infection and post-infection of herpesvirus (HSV-1) to Vero cells. a) betulin, and b) (3β,23E)-Cycloarta-23-ene-3,25-diol were added with the HSV-1 infected Vero cells at various times period like pre-infection (− 1 h), co-infection (0 h) or post-infection( 2-24 h). After 3 days of incubation at 37°C, inhibition was evaluated by MTS assay and expressed as the inhibition percentage. Each point represents the mean of three independent experiments
# Vero cells = test: Cytotoxicity assay (MTS) on Vero cells; type: cell-based, African green monkey; settings: Vero cells, MTS, 3 days incubation, n=3
# Method: as §1, §2
# [4] = CC50 ±SEM (50% cytotoxic concentration on vero cells)
# [5] = Human alphaherpesvirus 1, Vero, 72 h
Compound,"CC50 at 3 days [1, 4] [µg/mL]",Selectivity index (SI) = CC50/EC50 (HSV-1 [2]),EC50 (HSV-1 [2]; [5]) [µg/mL],Time of compound addition giving the highest inhibition against HSV-1 infection (HSV-1 [3]) [h],"EC50 (HSV-1 [2]; Human alphaherpesvirus 1, 72 h, HSV-1 in Vero cells, MTS, 3 days, three separate experiments) [µg/mL]","CC50 at 3 days ([1]; Vero cells, MTS, 3 days incubation, n=3, read-out: CC50 ±SEM (50% cytotoxic concentration on vero cells)) [µg/mL]",CC50 ±SEM (50% cytotoxic concentration on vero cells) (Vero cells) [µg/mL],Selectivity index (SI) = CC50/EC50 (HSV-1 [2]; listed as betulin)
"C[C@H](C/C=C/C(C)(C)O)[C@H]1CC[C@@]2(C)C3CCC4C(C)(C)[C@@H](O)CC[C@@]45C[C@@]35CC[C@]12C (stereo partly drawn) [(3β,23E)-Cycloarta-23-ene-3,25-diol, Cycloart-23E-ene-3β,25-diol]",1089.2 ± 0.25,12.57,86.63 ± 0.03,≤ 2.0,–,–,–,–
"Nc1nc2c(ncn2COCCO)c(=O)[nH]1 [Acyclovir, reference compound]",128 ± 0.215,42.66,–,–,3,–,–,–
"C=C(C)[C@@H]1CC[C@]2(CO)CC[C@]3(C)[C@H](CC[C@@H]4[C@@]5(C)CC[C@H](O)C(C)(C)[C@@H]5CC[C@]43C)[C@@H]12 [Betulin, lup-20(29)-ene-3β,28-diol]",–,7.83,84.37 ± 0.018,≤ 2.0,–,660.72 ± 0.072,660.72 ± 0.072,7.831
